The values below come from paper PMC7356228, “Alvaxanthone, a Thymidylate Synthase Inhibitor with Nematocidal and Tumoricidal Activities” (Molecules, 2020).

One data set deals with T1, mTS (Mus musculus, UniProt P07607).
T1 construct: made in house
Briefly: Inhibition of TS-catalyzed reaction (tritium release from [5-3H]dUMP). The format is biochemical. Particulars: 20 µM dUMP, 250 µM meTHF. The text has this: (§1) The recombinant human, rat, mouse, T. spiralis and C. elegans TS proteins were produced, purified and separated into phosphorylated and non-phosphorylated fraction, as previously described. TS activity was monitored, following tritium release from [5-^3H]dUMP, and its inhibition studied as earlier reported.

The next data set has as its target T2, hTS (Homo sapiens, UniProt P04818).
T2 construct: made in house
The description is as above. The format is biochemical.
From the text: as §1

Data set [1] has as its system U-118 MG cells. Briefly: Proliferation (CyQUANT GR, total cellular DNA content). The format is cell-based, human. Particulars: 40 μM, 72 h, BJ vs U-118 MG. How it is done:
(§2) The influence of alvaxanthone and rheediaxanthone B on cell proliferation (Figure 2) was assessed by quantitative measurement of the total cellular DNA content, proportional to the cell number.
(§3) Figure 2 Proliferation of cancer (U-118 MG and SCC-15) and normal (BJ) cells after 72 h incubation with 5–40 μM alvaxanthone or 1.25–40 μM rheediaxanthone B, determined with the CyQUANT GR Cell Proliferation Assay Kit. Median results are presented of three independent experiments, each performed in triplicate. The whiskers are lower (25%) and upper (75%) quartile ranges. […] Images collected with Olympus IX-83 microscope with contrast phase (scale bar = 100 µm).
(§4) Influence of selected compounds on cells was tested by performing the cytotoxicity (NR and XTT) assays, proliferation assay, cell adhesion assay, cell migration assay, determination of intracellular ATP level, and apoptosis assay as previously reported.

For data set [2], the system named is SCC-15 cells. The description is as above. Particulars: 40 μM, 72 h, BJ vs SCC-15. The format is cell-based, human. Here is the method:
as §2, §3, §4

The subject of data set [3] is BJ, U-118 MG and SCC-15 cells. Description: NR assay, summary over the three cell lines. The format is cell-based, human. Particulars: 48 h, span over BJ. How it is done: (§5) Biological effect of alvaxanthone and rheediaxanthone B on normal (BJ) and cancer cells (U-118 MG and SCC-15) was estimated using two viability assays, the neutral red uptake (NR) and tetrazolium salts reduction (XTT) assays.
Thus, alvaxanthone may be damaging mitochondria and impairing their metabolism exerting one of possible mechanisms active in destroying cancer cells. Changes of cell morphology in dependence on increasing alvaxanthone and rheediaxanthone B concentration were also recorded. While the glioma and squamous carcinoma cells formed clusters, lost their adhesion, shrank, and accumulated less NR dye, normal fibroblasts preserved rather normal shapes but the amount of the neutral red dye and confluence of cells decreased. In addition, a lower number of BJ cells was detected (Figure 1B).
as §4

The target of the next data set is T3, CeTS (Caenorhabditis elegans, UniProt Q9Y052).
T3 sequence (Q9Y052 1-315): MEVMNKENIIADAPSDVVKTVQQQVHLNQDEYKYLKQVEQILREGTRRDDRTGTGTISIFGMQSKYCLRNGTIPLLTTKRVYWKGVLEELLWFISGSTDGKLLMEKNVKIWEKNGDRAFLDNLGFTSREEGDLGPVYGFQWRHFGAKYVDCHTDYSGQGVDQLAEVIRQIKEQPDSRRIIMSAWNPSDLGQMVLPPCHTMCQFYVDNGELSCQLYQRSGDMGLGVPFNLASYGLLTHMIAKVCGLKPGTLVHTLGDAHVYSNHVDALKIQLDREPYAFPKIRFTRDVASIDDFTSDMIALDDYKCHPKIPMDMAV
Briefly: Inhibition of TS-catalyzed reaction (tritium release from [5-3H]dUMP). As to conditions: 20 µM dUMP, 250 µM meTHF. The data set is classed as biochemical, C. elegans.
From the text: as §1

Data set [4] has as its system caspases 3/7 in BJ, U-118 MG, and SCC-15 cells. Description: Apo-ONE Homogenous Caspase-3/7 Assay. The data set is classed as cell-based, human. As to conditions: 48 h, 5–40 µM, span over the three cell lines. Here is the method:
Figure 4 Changes of caspase-3/7 activities and intracellular ATP level in BJ, U-118 MG, and SCC-15 cells after 48-h incubation with 5–40 µM alvaxanthone or rheediaxanthone B. Median results are presented of three independent experiments, each performed in triplicate. The whiskers are lower (25%) and upper (75%) quartile ranges.
The Apo-ONE® Homogenous Caspase-3/7 Assay provides a measurement of the executioner caspases 3/7 activation, characteristic for apoptosis induced via both the intrinsic and extrinsic pathway. It was used to determine apoptosis induction in cells by alvaxanthone and rheediaxanthone B. In each of the three cell lines, compared to the respective non-treated control, treatment with each of the two compounds for 48 h led to a significant activation of the caspases 3/7 (by 2- to 10-fold for alvaxanthone and 8- to 18-fold for rheediaxanthone B), the effect being stronger in cancer than normal cells (Figure 4).
as §4

A further data set concerns BJ cells. Briefly: Cell adhesion, crystal violet assay. The data set is classed as cell-based, human. As to conditions: 48-h treatment. How it is done:
(§6) Cancer metastasis, resulting from an impairment of adhesion between cancer cells and the extracellular matrix may cause cell migration from a primary tumor into distant parts of an organism. The cristal violet assay was used to examine alvaxanthone and rheediaxanthone B ability to influence cellular adhesion.
(§7) Figure 3 Influence of alvaxanthone or rheediaxanthone B on BJ, U-118 MG, and SCC-15 cells adhesion after 48-h treatment. The crystal violet assay was used. Results are medians of triplicate assays of three independent experiments expressed as a % of non-treated controls. The whiskers are lower (25%) and upper (75%) quartile ranges. * p ≤ 0.05, Kruskal–Wallis test (against non-treated control).
as §4

Data set [5] deals with U-118 MG cells. Description: Cell adhesion, crystal violet assay. The format is cell-based, human. As to conditions: 48-h treatment. Here is the method:
as §6, §7, §4

In data set [6] the test system is SCC-15 cells. Briefly: Cell adhesion, crystal violet assay. The data set is classed as cell-based, human. Particulars: 48-h treatment. Here is the method: as §6, §7, §4
For data set [7], the system named is thymidylate synthase (TS). Briefly: Time dependence of TS inhibition (initial results). The format is biochemical. Particulars: suggesting slow-binding character.
From the text: as §1

The target of another data set is TsTS (Trichinella spiralis, UniProt Q9NDD3). Description: Inhibition of TS-catalyzed reaction (tritium release from [5-3H]dUMP). Particulars: for remaining activity at 10 µM: compound 10 µM; for remaining activity at 10 µM / remaining activity at 100 µM: 20 µM dUMP; for remaining activity at 100 µM: compound 100 µM. The data set is classed as biochemical, T. spiralis.
Chain of TsTS (Q9NDD3 entry or part of it): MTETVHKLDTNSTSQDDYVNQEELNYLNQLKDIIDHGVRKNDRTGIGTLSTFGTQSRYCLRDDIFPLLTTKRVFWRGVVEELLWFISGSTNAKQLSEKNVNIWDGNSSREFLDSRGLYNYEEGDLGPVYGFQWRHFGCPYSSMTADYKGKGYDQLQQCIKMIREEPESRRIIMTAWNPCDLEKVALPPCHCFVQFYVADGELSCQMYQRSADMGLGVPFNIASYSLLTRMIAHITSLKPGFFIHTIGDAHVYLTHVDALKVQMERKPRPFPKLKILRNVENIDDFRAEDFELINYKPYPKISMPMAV
From the text: as §1

Data set [8] concerns BJ normal human skin fibroblasts. Briefly: Cytotoxicity, neutral red uptake (NR) assay. The format is cell-based. Particulars: Homo sapiens, Skin fibroblast; neutral red assay, BJ; read-out: IC50. How it is done:
as §5
(§8) Human glioblastoma cells U-118 MG (ATCC® HTB-15), human squamous carcinoma cells SCC-15 (ATCC® CRL-1623), and normal human skin fibroblasts (ATCC® CRL-2522) were grown, their morphology checked, and number and viability estimated as earlier presented.
as §4

Data set [9] is described as follows: Cytotoxicity, neutral red uptake (NR) assay. The format is cell-based, human. As to conditions: human, BJ normal skin fibroblasts; NR assay, 40 µM, 48 h, fibroblasts. Here is the method:
as §5, §8, §4

Where [10] appears, read: compound 100 µM, read-out: % Remaining Activity.

Each structure is given as a SMILES string. Read-outs that look alike come from different tables or passages of the source.

T2 sequence (P04818 whole entry): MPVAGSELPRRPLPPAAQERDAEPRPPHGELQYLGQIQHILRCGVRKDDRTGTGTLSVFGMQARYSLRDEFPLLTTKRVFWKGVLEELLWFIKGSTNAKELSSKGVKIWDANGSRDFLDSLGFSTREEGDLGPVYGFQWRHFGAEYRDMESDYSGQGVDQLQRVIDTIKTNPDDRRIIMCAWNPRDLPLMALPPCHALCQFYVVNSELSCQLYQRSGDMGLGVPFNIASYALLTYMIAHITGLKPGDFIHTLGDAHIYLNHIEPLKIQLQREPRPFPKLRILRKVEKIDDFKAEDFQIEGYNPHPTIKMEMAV
T1 sequence (P07607 whole entry): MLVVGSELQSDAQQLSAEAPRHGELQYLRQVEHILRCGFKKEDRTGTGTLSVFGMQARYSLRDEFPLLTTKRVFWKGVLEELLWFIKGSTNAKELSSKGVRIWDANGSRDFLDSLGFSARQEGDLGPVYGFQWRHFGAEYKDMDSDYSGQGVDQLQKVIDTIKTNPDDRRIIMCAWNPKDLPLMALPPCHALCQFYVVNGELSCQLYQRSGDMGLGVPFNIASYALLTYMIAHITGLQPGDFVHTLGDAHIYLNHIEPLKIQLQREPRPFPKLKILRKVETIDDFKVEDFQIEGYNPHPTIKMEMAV

For `C=CC(C)(C)c1c(O)cc2oc3c(O)c(O)cc(CC=C(C)C)c3c(=O)c2c1O` [Alvaxanthone (15), Alvaxanthone], the remaining activity (as a rule, what remains of the control signal, in per cent) at 10 µM at mTS (compound 10 µM) came out at 79%; at hTS (compound 10 µM, 20 µM dUMP, 250 µM meTHF), 39%; on CeTS (compound 10 µM), 85%; on TsTS (50 µM meTHF) it was 97%; on TsTS (250 µM meTHF), 98%. In addition, the remaining activity at 100 µM on mTS (setting [10]) came to 40%; at CeTS (setting [10]), 18%; on TsTS (50 µM meTHF), 14%; on TsTS (250 µM meTHF), 47%. Moreover, the IC50 – broadly, the concentration needed to halve the response being measured – is 6.3 ± 1.6 µM at hTS (20 µM dUMP and 50 µM meTHF, mean ± S.E.M. (N=3) for alvaxanthone, rheediaxanthone B not repeated, read-out: IC50); less than 10 µM at hTS (20 µM dUMP, 250 µM meTHF, read-out: IC50 Assessment); greater than 15 µM in data set [3] (Homo sapiens); less than 18 µM in data set [3]; 41.9 ± 8.1 µM on TsTS (IC50, 20 µM dUMP and 50 µM meTHF, mean ± S.E.M. (N=3) for alvaxanthone, rheediaxanthone B not repeated); 15.8 µM in data set [8]. Moreover, the “proliferation inhibition weaker with normal (BJ) than cancer cells” value in the data set with U-118 MG cells [1] was found to be 2.3 fold; in the data set with SCC-15 cells [2], 5.8 fold. Besides, in data set [4], the “activation of the caspases 3/7 compared to non-treated control” value is reported as 2- to 10 fold. For the same compound, the results for the “concentration at which reduction of adhesion is significant/apparent” value with BJ cells, in the data set on U-118 MG cells [5] and in the data set on SCC-15 cells [6] were 20 µM, 40 µM and 20 µM, respectively. For the same compound, the character of inhibition entry in data set [7] is reported as “time-dependent inhibition”. The viability (usually a read-out of living cells in per cent, often relative to untreated cells) at 48 h, 40 µM in [9] was 35%.
